Data from patent publication US20020188122A1, “Novel compounds” (SmithKline Beecham Corporation, priority 1993, published 2002).

Tests used:
[1] = tested on: human PGHS-2 protein expression; experiment: Prostoglandin endoperoxide synthase-2 (PGHS-2) assay, protein expression in LPS stimulated human monocytes; format: cell-based
Procedure: The followiong assay describes a method for determining the inhibitory effects of compounds of Formula (I) on human PGHS-2 protein expression in LPS stimulated human monocytes
Human peripheal blood monocytes were isolated from buffy coats by centrifugation through Ficoll and Percoll gradients. Cells were seeded at 2×10^6/well in 24 well plates and allowed to adhere for 1 hour in RPMI supplemented with 1% human AB serum, 20 mM L-glutamine, Penicillin-Streptomycin and 10 mM HEPES. Compounds were added at various concentrations and incubated at 37° C. for 10 minutes. LPS was added at 50 ng/well (to induce enzyme expression) and incubated overnight at 37° C. The supernatant was removed and cells washed once in cold PBS. The cells were lysed in 100 μl of cold lysis buffer(50 mM Tris/HCl pH 7.5, 150 mM NaCl, 1% NP40, 0.5% sodium deoxycholate, 0.1% SDS, 300 ug/ml DNAse, 0.1% TRITON X-100, 1 mM PMSF, 1 mM leupeptin, 1 mM pepstatin). The lysate was centrifuged (10,000× g for 10 min. at 4° C.) to remove debris and the soluble fraction was subjected to SDS PAGE. analysis (12% gel). Protein separated on the gel were transferred onto nitrocellulose membrane by electrophoretic means for 2 hours at 60 volts. The membrane was pretreated for one hour in PBS/0.1% Tween 20 with 5% non-fat dry milk. […]

| Compound | melting point | also measured |
| --- | --- | --- |
| C[C@@H]1C[C@H]2[C@@H]3CCC4=CC(=O)C=C[C@]4(C)[C@@]3(F)[C@@H](O)C[C@]2(C)[C@@]1(O)C(=O)CO [Dexamethasone] |  | inhibition of LPS induced PGHS-2 protein expression ([1]; rank order potency similar to that for inhibiting cytokine production): active |
| Nc1nccc(-c2c(-c3ccc(F)cc3)ncn2C2CCSCC2)n1 [Example 91, 5-(2-Amino-4-pyrimidinyl)-4-(4-fluorophenyl)-1-(tetrahydro-4-thiopyranyl)imidazole] | 228 to 230 °C |  |
| CNc1nccc(-c2c(-c3ccc(F)cc3)ncn2CCC#N)n1 [Example 93, 5-(2-Methylamino-4-pyrimidinyl)-4-(4-fluorophenyl)-1-(2-cyanoethyl)imidazole] | 193 to 194 °C |  |
| CC(Cc1ccc(O)c(O)c1)C(C)Cc1ccc(O)c(O)c1 (stereo not shown) [NDGA] |  | inhibition of LPS induced PGHS-2 protein expression ([1]; up to 10 uM): inactive |
